In PMC4977651, “Molecular features of biguanides required for targeting of mitochondrial respiratory complex I and activation of AMP-kinase” (BMC Biology, 2016):
Values joined by “and” are separate entries in the source; they are usually repeats but may differ in a detail not shown here. Equal entries are not always repeated.

Legend:
[1] = Octanol/PBS partition coefficient, shake-flask method; type: physicochemical; settings: 32 °C, pH 7.4, n = 3
Method: Octanol/PBS partition coefficients were measured by the shake-flask method at 32 °C, pH 7.4.

[2] = test system: bovine mitochondrial membranes (complexes II-III-IV); test: Succinate:O2 oxidoreduction (complexes II-III-IV, complex II assay) by bovine mitochondrial membranes; type: biochemical, Bos taurus; settings: biguanide concentrations set to the IC50 values for NADH:O2 on bovine membranes; control = 100.00; n = 3
Method: Assays were performed at 32 °C in a SpectraMax 96-well plate reader. NADH:decylubiquinone oxidoreduction by complex I at 0.5 μg mL^−1 was measured in 20 mM Tris-HCl (pH 7.2), 0.15 % soy bean asolectin (Avanti Polar Lipids), and 0.15 % 3-((3-cholamidopropyl)dimethylammonium)-1-propanesulfonate (CHAPS, Merck Chemicals Ltd), with 200 μM decylubiquinone and 200 μM NADH, and monitored using ε340–380(NADH) = 4.81 mM^−1 cm^−1 [23]. Catalysis was initiated by addition of NADH and maximal rates determined by linear regression. NADH:O2 oxidoreduction by membranes was measured similarly but using 5 μg mL^−1 membranes in 10 mM Tris-HCl (pH 7.4) and 250 mM sucrose using 200 μM NADH and supplemented with 0.15 mM horse heart cytochrome c (Sigma-Aldrich Ltd.). Succinate:O2 oxidoreduction was measured using 40 μg mL^−1 membranes in 5 mM succinate in 10 mM Tris-HCl (pH 7.4) as described previously. Control experiments included NaCl (to match the ionic strength) or DMSO, as appropriate.

[3] = test system: permeabilized MDBK cells; test: ADP-stimulated rotenone-sensitive OCR in permeabilized MDBK cells; type: cell-based, Bos taurus; parameters: rotenone sensitive OCR after ADP stimulation, average / rotenone sensitive OCR after ADP stimulation: unit not given here; settings: for rotenone sensitive OCR after ADP stimulation, % of control, average / rotenone sensitive OCR after ADP stimulation, average / rotenone sensitive OCR after ADP stimulation / rotenone sensitive OCR after ADP stimulation, % of control: MDBK permeabilised cells; for rotenone sensitive OCR after ADP stimulation, % of control, average / rotenone sensitive OCR after ADP stimulation, average: average of replicates; for rotenone sensitive OCR after ADP stimulation / rotenone sensitive OCR after ADP stimulation, % of control: individual replicates; for inhibition of OCR: MDBK cells, 30 min, data used for Fig. 4c matrix concentration estimate
Method: For permeabilized cell experiments, cells were seeded into XF96 plates at 0.9–1.1 × 10^4 per well and incubated for 48 h at 37 °C in 5 % CO2. Then, the growth medium was exchanged for assay buffer containing 3 nM plasma membrane permeabilizer ‘PMP’ (Seahorse Biosciences Inc.), 10 mM glutamate, 10 mM malate, 220 mM mannitol, 70 mM sucrose, 10 mM KH2PO4, 5 mM MgCl2, 1 mM EGTA, 0.2 % fatty acid-free bovine serum albumin (BSA), and 2 mM HEPES (pH 7.4 at 37 °C). […] The biguanides were allowed to accumulate for 30 min, then respiration was […] by the addition of 4 mM ADP. Rotenone was added (2 μM) at the end of the experiment.
Rotenone-sensitive OCRs were calculated by subtracting the rotenone-insensitive rates (determined at the end of the experiment). OCRs were normalized by dividing by the OCR recorded immediately prior to the addition of biguanide. For rate of uptake calculations, the OCRs at time points after biguanide addition were divided by the OCRs at the same time points in control experiments. Data from wells with failed port injections were excluded from the analyses. The respiratory control ratio (RCR) values (state III versus state IV respiration) were ~11 and ~6 for permeabilized MDBK and 143B cells, respectively.

[4] = test system: mouse liver mitochondria; test: ADP-stimulated rotenone-sensitive OCR in isolated mouse liver mitochondria; type: biochemical; parameters: rotenone sensitive OCR after ADP stimulation, individual replicates / rotenone sensitive OCR after ADP stimulation, average: unit not given here; settings: for rotenone sensitive OCR after ADP stimulation, % of control, average / rotenone sensitive OCR after ADP stimulation, average: average of replicates; for rotenone sensitive OCR after ADP stimulation, % of control, individual replicates / rotenone sensitive OCR after ADP stimulation, individual replicates: replicate 1-5
Method: (§1) Complex I and mitochondrial membranes were prepared from Bos taurus (bovine) heart. Intact mitochondria were isolated from rat liver and mouse heart and liver. Membranes were prepared from mouse heart mitochondria by 5 s bursts of sonication at 4 °C and collected by centrifugation (75,000 × g, 1 h).
(§2) Isolated mitochondria were monitored using a Seahorse XF96 extracellular flux analyzer at 32 °C. Mouse heart mitochondria, and mouse and rat liver mitochondria were plated into XF96 plates at 4 and 16–20 μg per well, respectively, in 220 mM mannitol, 70 mM sucrose, 10 mM KH2PO4, 5 mM MgCl2, 1 mM EGTA, 0.2 % fatty acid-free BSA, and 2 mM HEPES (pH 7.4 at 37 °C) with 10 mM glutamate and 10 mM malate and adhered by centrifugation (2000 × g, 20 min, 4 °C). The medium was supplemented with a further 5 mM glutamate and 5 mM malate and the mitochondria incubated for 15 min. Then two baseline readings were taken before the biguanides were added at IC50/5. Biguanides were allowed to accumulate for 15–20 min before respiration was uncoupled by the addition of 4 mM ADP. Rotenone (2 μM) was added at the end of the experiment. Data from wells with failed port injections were excluded from the analyses. The RCR values (state III versus state IV respiration) were 3.4, 4.8, and 4.6 for mouse heart, rat liver, and mouse liver, respectively.

[5] = test system: rat liver mitochondria; test: ADP-stimulated rotenone-sensitive OCR in isolated rat liver mitochondria; type: biochemical; parameters: rotenone sensitive OCR after ADP stimulation, individual replicates / rotenone sensitive OCR after ADP stimulation, average: unit not given here; settings: for rotenone sensitive OCR after ADP stimulation, % of control, average / rotenone sensitive OCR after ADP stimulation, average: average of replicates; for rotenone sensitive OCR after ADP stimulation, % of control, individual replicates / rotenone sensitive OCR after ADP stimulation, individual replicates: replicate 1-5
Method: as §1, §2

[6] = test system: mouse heart mitochondria; test: ADP-stimulated rotenone-sensitive OCR in isolated mouse heart mitochondria; type: biochemical; parameters: rotenone sensitive OCR after ADP stimulation, individual replicates / rotenone sensitive OCR after ADP stimulation, average / rotenone sensitive OCR after 15 mins, average: unit not given here; settings: for rotenone sensitive OCR after ADP stimulation, % of control, average / rotenone sensitive OCR after ADP stimulation, average: average of replicates; for rotenone sensitive OCR after ADP stimulation, % of control, individual replicates: replicate 1-11; for rotenone sensitive OCR after ADP stimulation, individual replicates: replicate 1-12
Method: as §1
as §2, with “Biguanides were allowed to accumulate for 15–20 min before respiration was uncoupled by the addition of 4 mM ADP.” left out

## N=C(N)NC(N)=Nc1ccccc1 [compound 2, phenyl biguanide]
[1]
  P (partition coefficient): 0.236
  logP: -0.627
[2]
  Complex II assay (succinate:O2 oxidoreduction), average: 92.05
[3]
  rotenone sensitive OCR after ADP stimulation, % of control, average: 101.81 % of control
  rotenone sensitive OCR after ADP stimulation, average: 286.92
[3]; biguanide at IC50/5
  rotenone sensitive OCR after ADP stimulation, % of control, average: 101.81 % of control
  rotenone sensitive OCR after ADP stimulation, average: 286.92
  rotenone sensitive OCR after ADP stimulation: 411.58 and 226.55 and 268.24 and 253.43 and 274.79
  rotenone sensitive OCR after ADP stimulation, % of control: 146.05 % of control and 80.39 % of control and 95.18 % of control and 89.93 % of control and 97.51 % of control
[4]
  rotenone sensitive OCR after ADP stimulation, % of control, average: 78.67 % of control
  rotenone sensitive OCR after ADP stimulation, average: 27.30
  rotenone sensitive OCR after ADP stimulation, % of control, individual replicates: 80.64 % of control and 78.05 % of control and 77.34 % of control
  rotenone sensitive OCR after ADP stimulation, individual replicates: 27.98 and 27.08 and 26.83
[5]
  rotenone sensitive OCR after ADP stimulation, % of control, average: 93.19 % of control
  rotenone sensitive OCR after ADP stimulation, average: 25.55
  rotenone sensitive OCR after ADP stimulation, % of control, individual replicates: 95.39 % of control and 93.60 % of control and 90.74 % of control and 93.05 % of control
  rotenone sensitive OCR after ADP stimulation, individual replicates: 26.15 and 25.66 and 24.88 and 25.51
[6]
  rotenone sensitive OCR after ADP stimulation, % of control, average: 107.96 % of control
  rotenone sensitive OCR after ADP stimulation, average: 261.48
  rotenone sensitive OCR after ADP stimulation, % of control, individual replicates: 135.56 % of control and 93.15 % of control and 89.18 % of control and 125.36 % of control and 159.10 % of control and 52.24 % of control and 102.54 % of control and 106.56 % of control
  rotenone sensitive OCR after ADP stimulation, individual replicates: 328.33 and 225.59 and 215.99 and 303.61 and 385.34 and 126.52 and 248.35 and 258.08

## NC(N)=NC(N)=NCc1ccccc1 [compound 3, 2-benzyl-1-(diaminomethylidene)guanidine]
[1]
  P (partition coefficient): 0.184
  logP: -0.734
[2]
  Complex II assay (succinate:O2 oxidoreduction), average: 97.37
[3]
  inhibition of OCR: exceeded 90%
  rotenone sensitive OCR after ADP stimulation, % of control, average: 12.04 % of control
  rotenone sensitive OCR after ADP stimulation, average: 33.92
[3]; biguanide at IC50/5
  rotenone sensitive OCR after ADP stimulation, % of control, average: 12.04 % of control
  rotenone sensitive OCR after ADP stimulation, average: 33.92
  rotenone sensitive OCR after ADP stimulation: 60.28 and 86.89 and -11.73 and 15.23 and 8.14 and 44.74
  rotenone sensitive OCR after ADP stimulation, % of control: 21.39 % of control and 30.83 % of control and -4.16 % of control and 5.40 % of control and 2.89 % of control and 15.88 % of control
[3]; permeabilized MDBK cells, after 30 min of biguanide exposure, IC50/5
  accumulation into mitochondria (matrix concentration relative to extracellular medium): more than 200 fold
[4]
  rotenone sensitive OCR after ADP stimulation, % of control, average: 32.07 % of control
  rotenone sensitive OCR after ADP stimulation, average: 11.13
  rotenone sensitive OCR after ADP stimulation, % of control, individual replicates: 34.06 % of control and 31.32 % of control and 34.05 % of control and 28.86 % of control
  rotenone sensitive OCR after ADP stimulation, individual replicates: 11.82 (2×) and 10.87 and 10.01
[5]
  rotenone sensitive OCR after ADP stimulation, % of control, average: 24.02 % of control
  rotenone sensitive OCR after ADP stimulation, average: 6.59
  rotenone sensitive OCR after ADP stimulation, % of control, individual replicates: 20.74 % of control and 19.21 % of control and 31.06 % of control and 25.09 % of control
  rotenone sensitive OCR after ADP stimulation, individual replicates: 5.69 and 5.27 and 8.51 and 6.88
[6]
  rotenone sensitive OCR after ADP stimulation, % of control, average: 28.02 % of control
  rotenone sensitive OCR after ADP stimulation, average: 67.86
  rotenone sensitive OCR after ADP stimulation, % of control, individual replicates: 41.93 % of control and 30.59 % of control and 30.48 % of control and 24.44 % of control and 22.36 % of control and 21.02 % of control and 20.43 % of control and 32.91 % of control
  rotenone sensitive OCR after ADP stimulation, individual replicates: 101.56 and 74.09 and 73.82 and 59.18 and 54.16 and 50.90 and 49.48 and 79.71

## CC(C)N=C(N)N=C(N)N [compound 4, 1-(diaminomethylidene)-2-(propan-2-yl)guanidine]
[1]
  P (partition coefficient): 0.061
  logP: -1.21
[2]
  Complex II assay (succinate:O2 oxidoreduction), average: 101.59
[3]
  inhibition of OCR: exceeded 90%
  rotenone sensitive OCR after ADP stimulation, % of control, average: 3.16 % of control
  rotenone sensitive OCR after ADP stimulation, average: 8.89
[3]; biguanide at IC50/5
  rotenone sensitive OCR after ADP stimulation, % of control, average: 3.16 % of control
  rotenone sensitive OCR after ADP stimulation, average: 8.89
  rotenone sensitive OCR after ADP stimulation: 14.20 and 41.21 and 15.97 and 1.99 and -24.18 and 20.17 and 9.00 and -7.21
  rotenone sensitive OCR after ADP stimulation, % of control: 5.04 % of control and 14.62 % of control and 5.67 % of control and 0.71 % of control and -8.58 % of control and 7.16 % of control and 3.19 % of control and -2.56 % of control
[4]
  rotenone sensitive OCR after ADP stimulation, % of control, average: 19.19 % of control
  rotenone sensitive OCR after ADP stimulation, average: 6.66
  rotenone sensitive OCR after ADP stimulation, % of control, individual replicates: 21.16 % of control and 18.53 % of control and 17.88 % of control
  rotenone sensitive OCR after ADP stimulation, individual replicates: 7.34 and 6.43 and 6.20
[5]
  rotenone sensitive OCR after ADP stimulation, % of control, average: 8.94 % of control
  rotenone sensitive OCR after ADP stimulation, average: 2.45
  rotenone sensitive OCR after ADP stimulation, % of control, individual replicates: 10.19 % of control and 7.26 % of control and 8.19 % of control and 10.12 % of control
  rotenone sensitive OCR after ADP stimulation, individual replicates: 2.79 and 1.99 and 2.25 and 2.77
[6]
  rotenone sensitive OCR after ADP stimulation, % of control, average: 23.15 % of control
  rotenone sensitive OCR after ADP stimulation, average: 56.07
  rotenone sensitive OCR after ADP stimulation, % of control, individual replicates: 28.98 % of control and 23.60 % of control and 23.95 % of control and 23.54 % of control and 25.71 % of control and 23.25 % of control and 16.50 % of control and 19.68 % of control
  rotenone sensitive OCR after ADP stimulation, individual replicates: 70.20 and 57.15 and 58.01 and 57.01 and 62.27 and 56.30 and 39.95 and 47.67
